Literature values, collected in patent US8790676B2, “Microencapsulated pesticide” (priority 2005, dated 2014).
Read-outs that look alike come from different tables or passages of the source.

| Molecule | water-solubility (at pH 4.0, 20° C.) [mg/mL] | water-solubility (pH 7) [mg/mL] |
| --- | --- | --- |
| (E)-1-(2-chloro-1,3-thiazol-5-yl)-3-methyl-2-nitroguanidine [Clothianidin] | 0.304 |  |
| CCN(Cc1ccc(Cl)nc1)/C(=C/[N+](=O)[O-])NC [Nitempyram, (E)-N-(6-chloro-3-pyridylmethyl)-N-ethyl-N′-methyl-2-nitrovinylidenediamine] |  | > 590 |
